Assay results: patent US9764046B2, “Labeling composition for intraocular tissue, labeling method of intraocular tissue, and screening method” (CANON KABUSHIKI KAISHA, priority 2008, dated 2017)
“And” between values parts separate entries of the source, which are not always exact repeats. Equal values may be shown once.

How the values were obtained:
[1] = test system: intraocular tissue (retinal tissue incl. photoreceptor cell layer, vitreous body) of Zebrafish 7-day-old embryo; assay: Staining of intraocular tissue of Zebrafish fry by exposure to staining liquid, ocular tissue section observed by confocal microscope; assay type: in vivo; settings: Zebrafish 7 dpf fry, 1 μg/mL, 1 hour exposure, fixed ocular section
[2] = Excitation and fluorescence wavelengths by fluorescence spectrometer FL4500; assay type: physicochemical; settings: in nm (unit assumed)
[3] = aqueous solution: 10 mg/mL DMSO solution diluted to 1/500 with purified water (Examples 1 to 94)
[4] = values in a chloroform solution (Examples 95 to 106)

Structure (SMILES)	λem (fluorescence wavelength) [2, 3]	λex (excitation wavelength) [2, 3]	λem (fluorescence wavelength) [2, 4]	λex (excitation wavelength) [2, 4]	Stained site [1]	Staining ability [1]
O=C(O)C[n+]1c(/C=C/c2ccc3c(c2)C2CCCC2N3c2ccc(C=C(c3ccccc3)c3ccccc3)cc2)sc2ccccc21.[Br-] (centres unmarked) [Compound 62]	675	610	–	–	2	++
O=C(O)C[n+]1c(/C=C/c2ccc3c(c2)C2CCCC2N3Cc2ccccc2)sc2ccccc21.[Br-] (centres unmarked) [Compound 63]	611	566	–	–	1	++
COc1ccc2cc(N3c4ccc(/C=C/c5sc6ccccc6[n+]5CC(=O)O)cc4C4CCCC43)ccc2c1.[Br-] (centres unmarked) [Compound 64]	516	401	–	–	2	++
O=C(O)C[n+]1c(/C=C/c2ccc3c(c2)C2CCCC2N3c2ccc(C=C(c3ccccc3)c3ccccc3)cc2)oc2ccccc21.[Br-] (centres unmarked) [Compound 65]	657	570	–	–	1	++
CCN1C(=O)/C(=c2\s/c(=C/c3ccc4c(c3)C3CCCC3N4c3ccc(SC)cc3)c(=O)n2CC(=O)O)SC1=S (centres unmarked) [Compound 67]	699	570	–	–	–	+++
CCCCN1C(=O)/C(=c2\s/c(=C/c3ccc4c(c3)C3CCCC3N4c3ccc(OC)cc3)c(=O)n2CC(=O)OCC)SC1=S (centres unmarked) [Compound 68]	527	450	–	–	–	++
CCCCN1C(=O)/C(=c2\s/c(=C/c3ccc4c(c3)C3CCCC3N4c3ccccc3)c(=O)n2CC(=O)OCC)SC1=S (centres unmarked) [Compound 69]	609	653	–	–	–	++
COc1ccc(N2c3ccc(/C=C/C4=[N+](CCC(=O)O)c5ccccc5C4(C)C)cc3C3CCCC32)cc1.[I-] (centres unmarked) [Compound 71]	671	592	–	–	–	++
CCN1C(=O)/C(=c2\s/c(=C/c3cc(Br)c4c(c3)C3CCCC3N4Cc3ccccc3)c(=O)n2CC(=O)O)SC1=S (centres unmarked) [Compound 73]	649	548	–	–	–	++
COc1ccc(N2c3ccc(/C=C/C4=[N+](C)c5ccccc5C4(C)C)cc3C3CCCC32)cc1.[Br-] (centres unmarked) [Compound 74]	669	614	–	–	1	++
COc1ccc(N2c3ccc(/C=C/C4=[N+](CCC(=O)O)c5ccc6ccccc6c5C4(C)C)cc3C3CCCC32)cc1.[I-] (centres unmarked) [Compound 75]	683	619	–	–	1	++
CC1(C)C(/C=C/c2ccc3c(c2)C2CCCC2N3c2ccc(C=C(c3ccccc3)c3ccccc3)cc2)=[N+](CCC(=O)O)c2ccc3ccccc3c21 (centres unmarked) [Compound 76]	724	674	–	–	–	++
COc1ccc(N2c3ccc(/C=C/c4sc5ccccc5[n+]4CCC(=O)O)cc3C3CCCC32)cc1 (centres unmarked) [Compound 77]	668	583	–	–	–	++
O=C(O)CC[n+]1c(/C=C/c2ccc3c(c2)C2CCCC2N3c2ccc(C=C(c3ccccc3)c3ccccc3)cc2)sc2ccccc21.[I-] (centres unmarked) [Compound 78]	726	598	–	–	1	++
CCN1C(=S)S/C(=c2/s/c(=C/c3ccc4c(c3)C3CCCC3N4c3ccc(C=C(c4ccccc4)c4ccccc4)cc3)c(=O)n2CC(=O)O)C1=S (centres unmarked) [Compound 79]	702	567	–	–	–	++
CCN1C(=O)/C(=c2/s/c(=C/c3ccc4c(c3)C3CCCC3N4c3ccc(C=C(c4ccccc4)c4ccccc4)cc3)c(=O)n2CC(=O)O)SC1=S (centres unmarked) [Compound 80]	673	551	–	–	–	++
CC[n+]1c(C=c2sc(=Cc3ccc4c(c3)C3CCCC3N4c3ccc(C=C(c4ccccc4)c4ccccc4)cc3)c(=O)n2-c2ccccc2)sc2ccccc21.[Br-] (centres unmarked) [Compound 82]	721	591	–	–	2	+++
COc1ccc(N2c3ccc(/C=C/c4sc5c6ccccc6ccc5[n+]4CCC(=O)O)cc3C3CCCC32)cc1.[I-] (centres unmarked) [Compound 83]	682	605	–	–	2	++
CCOC(=O)Cn1c(=Cc2sc3ccccc3[n+]2C)sc(=Cc2ccc3c(c2)C2CCCC2N3c2ccc(C=C(c3ccccc3)c3ccccc3)cc2)c1=O.[Br-] (centres unmarked) [Compound 84]	718	599	–	–	2	++
Nc1c(OCCOC(=O)Oc2ccccc2)cc(O)c2c1C(=O)c1ccccc1C2=O [Compound 114]	–	–	568	513	–	∘

Now from value to compound, other results behind:

λem (fluorescence wavelength) [2, 3]	λex (excitation wavelength) [2, 3]	λem (fluorescence wavelength) [2, 4]	λex (excitation wavelength) [2, 4]	Structure (SMILES)	Stained site [1]	Staining ability [1]
503	353	–	–	CC[n+]1c(C=C2SCC(=O)N2c2ccccc2)sc2ccccc21.[Br-] [Compound 85]	2	++
671	623	–	–	CCN1C(=O)/C(=c2\s/c(=C/c3ccc4c(c3)C3CCCC3N4CC)c(=O)n2CC)SC1=S (centres unmarked) [Compound 86]	–	++
551	466	–	–	CCCCNc1ccc2c3c(cccc13)C(=O)N(CCCC)C2=O [Compound 87]	–	++
503	450	–	–	CCOC(=O)c1cc(/C=C/C=C/c2sc3ccccc3[n+]2CC(=O)O)c2cccccc1-2.[Br-] [Compound 88]	1	++
550	528	–	–	CC/N=c1\cc2oc3cc(NCC)c(C)cc3c(-c3ccccc3C(=O)CC)c-2cc1C [Compound 90]	–	++
578 and 590	509 and 528	–	–	CCN(CC)c1ccc2c(-c3ccc(S(=O)(=O)NCCC(=O)O)cc3S(=O)(=O)O)c3ccc(=[N+](CC)CC)cc-3oc2c1.[Na+] [Compound 95]	–	++
680	530	–	–	C=CCN1C(=O)/C(=c2\s/c(=C/c3ccc4c(c3)C3CCCC3N4c3ccc(OC)cc3)c(=O)n2CC(=O)O)SC1=S (centres unmarked) [Compound 97]	–	∘
690	510	–	–	C=CCN1C(=O)/C(=C2\S/C(=C/c3ccc4c(c3)C3CCCC3N4c3ccccc3)CN2CC(=O)O)SC1=S (centres unmarked) [Compound 98]	–	∘
760	560	–	–	C[n+]1c(C=c2sc(=Cc3ccc4c(c3)C3CCCC3N4c3ccc(C=C(c4ccccc4)c4ccccc4)cc3)c(=O)n2CC(=O)O)sc2ccccc21.[Br-] (centres unmarked) [Compound 101]	1	∘
700	590	–	–	CCn1c(=C2SC(=S)N(CC(=O)O)C2=O)sc(=Cc2ccc3c(c2)C2CCCC2N3c2ccccc2)c1=O (centres unmarked) [Compound 102]	1	∘
640	520	–	–	CSc1cccc(N2c3ccc(/C=C4/SC(=S)N(CC(=O)O)C4=O)cc3C3CCCC32)c1 (centres unmarked) [Compound 103]	–	∘
650	510	–	–	O=C(O)CN1C(=O)/C(=C2C=C/C(=C\c3ccc4c(c3)C3CCCC3N4c3ccccc3)C\2)SC1=S (centres unmarked) [Compound 106]	–	∘
490	380	–	–	O=C1/C(=C/c2ccc3c(c2)C2CCCC2N3c2ccccc2)Oc2ccc(I)cc21 (centres unmarked) [Compound 107]	–	∘
680	530	–	–	COc1ccc(N2c3ccc(/C=C4\Oc5ccc(I)cc5C4=O)cc3C3CCCC32)cc1 (centres unmarked) [Compound 108]	–	∘
630	540	–	–	Cc1cc(C)cc(Nc2ccc3c4c(cc(=O)n3C)-c3ccccc3C(=O)c24)c1 [Compound 109]	–	∘
–	–	614	538	Cn1c(=O)cc2c3c(c(Nc4ccccc4)ccc31)C(=O)c1ccccc1-2 [Compound 110]	–	∘
–	–	589	527	Nc1c(Br)cc(O)c2c1C(=O)c1ccccc1C2=O [Compound 111]	–	∘
–	–	568	513	Nc1c(OCCCOc2ccccc2)cc(O)c2c1C(=O)c1ccccc1C2=O [Compound 112]	–	∘
–	–	575	514	COC(=O)CCc1ccc(Oc2cc(O)c3c(c2N)C(=O)c2ccccc2C3=O)c(C)c1 [Compound 113]	–	∘
–	–	614	540	Cc1cccc(Nc2ccc3c4c(cc(=O)n3C)-c3ccccc3C(=O)c24)c1 [Compound 115]	–	∘
–	–	584	537	COc1ccc(Nc2ccc3c4c(cc(=O)n3C)-c3ccccc3C(=O)c24)cc1 [Compound 116]	–	∘
